Assay results from patent US20080004271A1, “Inhibitors of TNFalpha, PDE4 and B-RAF, compositions thereof and methods of use therewith” (priority 2006, published 2008).

Assays:
pMEK1/2 in A375 cells = experiment: A375 pMEK1/2 Meso Scale Assay; format: cell-based; details: Homo sapiens, A-375, 2 h; A375 pMEK1/2, about two hours incubation
Procedure: On the afternoon of Day 1, cells are plated in a 96-well flat bottom cell culture plate at about 50,000 cells/well in a volume of 100 μl. On the morning of Day 2, serial dilutions of test compound(s) are added to the plate. The plate is incubated for about two hours at 37° C., […]. The plate is blocked about five minutes before the compound incubation step is completed by adding 150 μl/well of MSD (Meso Scale Discovery) blocking solution-A (prepared with 20 ml 1× Tris wash buffer (25 ml of 10× Tris buffer+225 ml deionized water) and 600 mg MSD blocker A) and incubating with vigorous shaking at room temperature for one hour. The plate is washed 4× with 1× Tris wash buffer.
Cells are harvested and lysates prepared by removing medium, washing 1× with ice-cold PBS (calcium and magnesium free), adding 50 μl/well Complete Tris buffer and incubating with shaking at 4° C. for one hour. Lysate samples (25 μl) are added to an MSD Multi-Spot plate and incubated with vigorous shaking at room temperature for two hours. The plate is washed 1× with Tris wash buffer.
25 μl/well of […] detection antibody (Anti-pMEK1/2 antibody; SULFO-TAG labeled, light sensitive) in 3 ml of cold antibody dilution buffer (1 ml blocking solution-A, 1.82 ml 1× Tris wash buffer, 150 μl 2% MSD blocker D-M and 30 μl 10% MSD blocker D-R) is added and the plate is incubated with vigorous shaking at room temperature in the dark for one hour. The plate is washed 1× with Tris wash buffer.
150 μl/well of 1× MSD Read buffer T (with surfactant) is added to the plate and the plate is read using a MSD Sector instrument.

A375 cells = experiment: Alamar Blue Viability Assay; format: cell-based; details: Homo sapiens, A-375, 72 h, 3 days
Procedure: A375 cells (ATCC # CRL-1619; Passage 4˜15; doubling time is roughly 18 hours) are used. Culture medium is DMEM (high glucose, with L-glutamine)+10% FBS+Pen/Strep. Cells are passed every three days at 1:20.
200 μl of medium only is added into all wells along the edges of a 96-well flat bottom plate and 180 μl of cell suspension (containing 1,000 cells) per well is added into the plate with a Low Evaporation Lid (Costar Cat # 3595). The cells are cultured overnight. Compounds and controls are diluted according to standard compound dilution protocol described below. From 30 mM stock solution, 10 mM, 3 mM, 1 mM, and 0.3 mM solutions in 100% DMSO are prepared using the following serial dilution protocol:
The 30, 10, 3, 1 and 0.3 mM solutions are diluted 1:50 (DMSO:medium) by adding 4 μl of each to 196 μl of culture medium. This yields 600 μM, 200 μM, 60 μM, 20 μM, and 6 μM secondary stock solutions. 4 μl of DMSO are added to 196 μl medium for the DMSO control as well. 20 μl of compound dilutions, including the DMSO control locations (Row G, Columns 2-10 are DMSO control wells), are added in triplicate to the cells in the 96-well plate using a repeat pipettor (see plate layout below). This yields final concentrations of 60 μM, 20 μM, 6 μM, 2 μM, and 0.6 μM containing 0.2% DMSO in each well. The plate is gently tapped to evenly distribute compound within the well. The plate is incubated at 5% CO2 at 37° C. for 3 days.
20 μl of Alamar Blue (Biosource #DAL-1100) is added to each well. The plate is incubated in 5% CO2 incubator for 4 hours. Fluorescence is measured with excitation wavelength at 530 nm and emission wavelength at 590 nm using a Victor 2 multilabel plate reader (Perkin Elmer). Data is saved with plate format as a Text file and entered into ActivityBase (Cell-based SAR; Prolif-Alamar; MTT 5 plates unfixed fit) to calculate the percent of DMSO values for each compound set of triplicate wells and IC50 curves are plotted.

V600E mutant B-RAF = target: T1, V600E mutant B-RAF (Homo sapiens, UniProt P15056, V600E); experiment: V600E Mutant B-RAF 33P Assay; format: biochemical
T1 construct: purchased Upstate
T1 sequence (P15056 whole entry V600E): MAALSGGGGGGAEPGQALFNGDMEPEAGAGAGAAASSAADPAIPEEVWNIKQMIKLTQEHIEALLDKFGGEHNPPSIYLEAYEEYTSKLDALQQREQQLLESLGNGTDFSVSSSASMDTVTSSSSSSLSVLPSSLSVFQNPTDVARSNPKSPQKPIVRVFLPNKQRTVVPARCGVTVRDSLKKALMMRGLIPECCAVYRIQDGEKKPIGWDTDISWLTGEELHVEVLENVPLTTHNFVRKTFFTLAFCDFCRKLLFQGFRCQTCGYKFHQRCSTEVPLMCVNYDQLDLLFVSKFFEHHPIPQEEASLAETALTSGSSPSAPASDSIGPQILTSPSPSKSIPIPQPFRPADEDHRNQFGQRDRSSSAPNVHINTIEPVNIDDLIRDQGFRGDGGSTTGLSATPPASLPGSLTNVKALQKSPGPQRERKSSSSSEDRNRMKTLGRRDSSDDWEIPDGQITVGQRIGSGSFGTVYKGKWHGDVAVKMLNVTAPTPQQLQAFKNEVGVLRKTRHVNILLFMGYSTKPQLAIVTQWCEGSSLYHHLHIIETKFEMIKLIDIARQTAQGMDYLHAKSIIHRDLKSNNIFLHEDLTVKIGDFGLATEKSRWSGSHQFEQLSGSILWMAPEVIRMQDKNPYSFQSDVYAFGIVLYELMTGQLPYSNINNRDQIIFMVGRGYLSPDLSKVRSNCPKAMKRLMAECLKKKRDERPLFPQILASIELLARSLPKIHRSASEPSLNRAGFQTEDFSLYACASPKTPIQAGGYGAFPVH
Procedure: Substrate (HIS-MEK1 K97M) is prepared by Celgene Corp. as described above.
Test compound is diluted in 100% DMSO (600 μM). […] Substrate mixture is prepared as 7.5 μM HIS-MEK1 K97M in assay buffer. ATP mixture is prepared as 300 μM ATP, 75 mM MgCl2, 0.05 μCi/μl ^33P ATP in assay buffer.
In a 96 well assay plate (Falcon Polylpropylene well U-bottom), the following are added to each well: 2.5 μl of test compound solution (serial dilutions), 20 μl of substrate mixture and 17.5 μl of enzyme mixture. The plate is incubated for at least 15 minutes. 10 μl of ATP mixture is added and the plate is incubated at room temperature for about 60 minutes. 80 μl of 12.5% TCA is added to each well, and the plate is incubated for at least 20 minutes. The contents of the plate is transferred to a glass fiber filter plate (Millipore) using a Packard Harvester (washing 10× with 1×PBS). 50 μl of Scintillation-20 fluid is added to each well. The plate is read using a Packard TopCount.

| SMILES | IC50 (pMEK1/2 in A375 cells) [µM] | IC50 (A375 cells) [µM] | IC50 (V600E mutant B-RAF) [µM] |
| --- | --- | --- | --- |
| CC[C@@H](CO)Nc1nc(-c2ccc(Cl)c(Cl)c2)c2c(N)c(C(N)=O)sc2n1 [Example 207] | 10 to 20 | 10 to 20 | 0.1 to 10 |
| CC[C@H](CO)Nc1nc(-c2ccc(Cl)c(Cl)c2)c2c(N)c(C(N)=O)sc2n1 [Example 208] | 0.1 to 10 | 10 to 20 | 0.1 to 10 |
| NC(=O)c1sc2nc(NC3(CO)CC3)nc(-c3ccc(Cl)c(Cl)c3)c2c1N [Example 210] | 0.1 to 10 | 0.1 to 10 | 0.1 to 10 |
| C[C@@H](O)[C@@H](C)Oc1nc(-c2ccc(Cl)c(Cl)c2)c2c(N)c(C(N)=O)sc2n1 [Example 214] | 0.1 to 10 | 0.1 to 10 | 0.1 to 10 |
| CCCNc1nc(-c2ccc(Cl)c(Cl)c2)c2c(N)c(C(N)=O)sc2n1 [Example 217] | 10 to 20 | 0.1 to 10 | 0.1 to 10 |
| CNCCNc1nc(-c2ccc(Cl)c(Cl)c2)c2c(N)c(C(N)=O)sc2n1 [Example 218] | 30 to 60 | 10 to 20 | 0.1 to 10 |
| COCCNc1nc(-c2ccc(Cl)c(Cl)c2)c2c(N)c(C(N)=O)sc2n1 [Example 219] | > 60 | > 60 | 0.1 to 10 |
| NC(=O)c1sc2nc(NCC(O)CO)nc(-c3ccc(Cl)c(Cl)c3)c2c1N (stereo not drawn) [Example 220] | 10 to 20 | 20 to 30 | 0.1 to 10 |
| COCCCNc1nc(-c2ccc(Cl)c(Cl)c2)c2c(N)c(C(N)=O)sc2n1 [Example 222] | 20 to 30 | 20 to 30 | 0.1 to 10 |
| NC(=O)c1sc2nc(N[C@H]3CCNC3)nc(-c3ccc(Cl)c(Cl)c3)c2c1N [Example 224] | 0.1 to 10 | 10 to 20 | 0.1 to 10 |
| NC(=O)c1sc2nc(N[C@@H]3CCNC3)nc(-c3ccc(Cl)c(Cl)c3)c2c1N [Example 225] | 0.1 to 10 | 0.1 to 10 | 0.1 to 10 |
| NC(=O)c1sc2nc(NC3CCNCC3)nc(-c3ccc(Cl)c(Cl)c3)c2c1N [Example 226] | 0.1 to 10 | 0.1 to 10 | 0.1 to 10 |
| NC(=O)c1sc2nc(N[C@H]3CCOC3)nc(-c3ccc(Cl)c(Cl)c3)c2c1N [Example 228] | 0.1 to 10 | 10 to 20 | 0.1 to 10 |
| COc1ccc(F)c(-c2nc(NC3CC3)nc3sc(C(N)=O)c(N)c23)c1 [Example 230] | 10 to 20 | 20 to 30 | 0.1 to 10 |
| NC(=O)c1sc2nc(NC3CC3)nc(-c3cc(O)ccc3F)c2c1N [Example 231] | 0.1 to 10 | 0.1 to 10 | 0.1 to 10 |
| NC(=O)c1sc2nc(NC3CC3)nc(-c3ccc(C(F)(F)F)c(O)c3)c2c1N [Example 234] | 0.1 to 10 | 30 to 60 | 0.1 to 10 |

| SMILES | IC50 (pMEK1/2 in A375 cells) [µM] | IC50 (A375 cells) [µM] | IC50 (V600E mutant B-RAF) [µM] |
| --- | --- | --- | --- |
| Cc1c(O)cccc1-c1nc(NC(C)(C)CO)nc2sc(C(N)=O)c(N)c12 [Example 239] | 0.1 to 10 | 0.1 to 10 | 0.1 to 10 |
| C[C@@H](CO)Nc1nc(-c2cccc(O)c2F)c2c(N)c(C(N)=O)sc2n1 [Example 240] | 0.1 to 10 | 20 to 30 | 0.1 to 10 |
| C[C@H](CO)Nc1nc(-c2cccc(O)c2F)c2c(N)c(C(N)=O)sc2n1 [Example 241] | 0.1 to 10 | 10 to 20 | 0.1 to 10 |
| CC[C@@H](CO)Nc1nc(-c2cccc(O)c2F)c2c(N)c(C(N)=O)sc2n1 [Example 242] | 0.1 to 10 | 10 to 20 | 0.1 to 10 |
| CC[C@H](CO)Nc1nc(-c2cccc(O)c2F)c2c(N)c(C(N)=O)sc2n1 [Example 243] | 0.1 to 10 | 0.1 to 10 | 0.1 to 10 |
| NC(=O)c1sc2nc(NC3CC3)nc(-c3cccc(NCCc4ccccc4)c3)c2c1N [Example 247] | 0.1 to 10 | 0.1 to 10 | 0.1 to 10 |
| NC(=O)c1sc2nc(NC3CC3)nc(-c3cccc(NC(=O)Nc4ccc(Cl)c(C(F)(F)F)c4)c3)c2c1N [Example 249] | 0.1 to 10 | 0.1 to 10 | 0.1 to 10 |
| NC(=O)c1sc2nc(NC3CC3)nc(-c3cccc(NC(=O)Nc4ccc(F)cc4)c3)c2c1N [Example 252] | 0.1 to 10 | 0.1 to 10 | 0.1 to 10 |
| CC(C)(CN)CNc1nc(-c2ccc(Cl)c(Cl)c2)c2c(N)c(C(N)=O)sc2n1 [Example 253] | 0.1 to 10 | 0.1 to 10 | 0.1 to 10 |
| CC(C)(CN)Nc1nc(-c2ccc(Cl)c(Cl)c2)c2c(N)c(C(N)=O)sc2n1 [Example 256] | 0.1 to 10 | 0.1 to 10 | 0.1 to 10 |
| CC[C@H](CO)Nc1nc(-c2cccc(NC(=O)Nc3ccc(C(F)(F)F)cc3)c2)c2c(N)c(C(N)=O)sc2n1 [Example 258] | 0.1 to 10 | 0.1 to 10 | 0.1 to 10 |
| CC[C@@H](CO)Nc1nc(-c2cccc(NC(=O)Nc3ccc(C(F)(F)F)cc3)c2)c2c(N)c(C(N)=O)sc2n1 [Example 259] | 0.1 to 10 | 0.1 to 10 | 0.1 to 10 |
| C[C@@H](CO)Nc1nc(-c2cccc(NC(=O)Nc3ccc(C(F)(F)F)cc3)c2)c2c(N)c(C(N)=O)sc2n1 [Example 261] | 0.1 to 10 | 10 to 20 | 0.1 to 10 |
| CC(C)(CO)Nc1nc(-c2cc(O)c(Cl)c(Cl)c2)c2c(N)c(C(N)=O)sc2n1 [Example 264] | 0.1 to 10 | 0.1 to 10 | 0.1 to 10 |
| Cc1ccc(-c2nc(NC3CC3)nc3sc(C(N)=O)c(N)c23)cc1 [Example 265] | 20 to 30 | 20 to 30 | 0.1 to 10 |
